# Species on record: Rattus norvegicus
# Test: DrugMatrix - Regimen: Daily Repeat
# Assay type: toxicity, organism-based, Sprague-Dawley
# Parameters: regimen Daily Repeat, gender Male, age 6-8 weeks
# Settings: in vivo, ip, route intraperitoneal, vehicle 100 % SALINE; for ABSOLUTE BASOPHIL / ABSOLUTE EOSINOPHIL / ABSOLUTE LYMPHOCYTE / ABSOLUTE MONOCYTE / ABSOLUTE SEGMENTED NEUTROPHIL / BASOPHIL / EOSINOPHIL / ERYTHROCYTE COUNT / HEMATOCRIT / HEMOGLOBIN / LEUKOCYTE COUNT / LYMPHOCYTE / MEAN CORPUSCULAR HEMOGLOBIN / MEAN CORPUSCULAR HEMOGLOBIN CONCENTRATION / MEAN CORPUSCULAR VOLUME / MONOCYTE / NEUTROPHIL / PLATELET COUNT: tissue Blood
# [1] = 0 mg/kg, 120 h, dose level Control, time 5 day
# [2] = 0 mg/kg, 120 h, tissue Plasma, dose level Control, time 5 day
# [3] = 0 mg/kg, […], dose level Control, time 14 day
# [4] = 0 mg/kg, […], dose level Control, time 28 day
# [5] = 0 mg/kg, […], tissue Plasma, dose level Control, time 14 day
# [6] = 0 mg/kg, […], tissue Plasma, dose level Control, time 28 day
sequence,measurement,setting,value
COBALTOUS CHLORIDE,ABSOLUTE BASOPHIL,[1],32 cells/µL
same,ABSOLUTE EOSINOPHIL,[1],110 cells/µL
same,ABSOLUTE LYMPHOCYTE,[1],6630 cells/µL
same,ABSOLUTE MONOCYTE,[1],140 cells/µL
same,ABSOLUTE SEGMENTED NEUTROPHIL,[1],1170 cells/µL
same,BASOPHIL,[1],0.38%
same,EOSINOPHIL,[1],1.28%
same,ERYTHROCYTE COUNT,[1],7.45 x10E6/uL
same,HEMATOCRIT,[1],45.74%
same,HEMOGLOBIN,[1],14.72 G/DL
same,LEUKOCYTE COUNT,[1],8.11 x10E3/uL
same,LYMPHOCYTE,[1],81.3%
same,MEAN CORPUSCULAR HEMOGLOBIN,[1],19.76 pg
same,MEAN CORPUSCULAR HEMOGLOBIN CONCENTRATION,[1],32.16 G/DL
same,MEAN CORPUSCULAR VOLUME,[1],61.38 fL
same,MONOCYTE,[1],1.76%
same,NEUTROPHIL,[1],14.9%
same,PLATELET COUNT,[1],1322.4 x10E3/uL
same,ALANINE AMINOTRANSFERASE,[2],25.8 u/L
same,ALBUMIN,[2],3.64 G/DL
same,ASPARTATE AMINOTRANSFERASE,[2],81.4 u/L
same,BLOOD UREA NITROGEN,[2],14.4 mg/dL
same,CHOLESTEROL,[2],69.2 mg/dL
same,CREATINE PHOSPHOKINASE,[2],303.2 u/L
same,CREATININE,[2],0.56 mg/dL
same,GLUCOSE,[2],125.4 mg/dL
same,LACTATE DEHYDROGENASE,[2],105.4 u/L
same,LIPASE,[2],22.4 u/L
same,POTASSIUM,[2],5.52 MEQ/L
same,SODIUM,[2],147 MEQ/L
same,TOTAL BILIRUBIN,[2],0.2 mg/dL
same,TOTAL PROTEIN,[2],6.1 G/DL
same,URIC ACID,[2],1.06 mg/dL
same,ABSOLUTE BASOPHIL,[3],130 cells/µL
same,ABSOLUTE EOSINOPHIL,[3],140 cells/µL
same,ABSOLUTE LYMPHOCYTE,[3],13500 cells/µL
same,ABSOLUTE MONOCYTE,[3],400 cells/µL
same,ABSOLUTE SEGMENTED NEUTROPHIL,[3],2330 cells/µL
same,BASOPHIL,[3],0.72%
same,EOSINOPHIL,[3],0.86%
same,ERYTHROCYTE COUNT,[3],7.74 x10E6/uL
same,HEMATOCRIT,[3],45.98%
same,LEUKOCYTE COUNT,[3],16.61 x10E3/uL
same,LYMPHOCYTE,[3],81.34%
same,MEAN CORPUSCULAR HEMOGLOBIN,[3],18 pg
same,MEAN CORPUSCULAR HEMOGLOBIN CONCENTRATION,[3],30.22 G/DL
same,MEAN CORPUSCULAR VOLUME,[3],59.4 fL
same,MONOCYTE,[3],2.46%
same,NEUTROPHIL,[3],14.14%
same,PLATELET COUNT,[3],1445.5 x10E3/uL
same,ABSOLUTE BASOPHIL,[4],91 cells/µL
same,ABSOLUTE EOSINOPHIL,[4],110 cells/µL
same,ABSOLUTE LYMPHOCYTE,[4],9910 cells/µL
same,ABSOLUTE MONOCYTE,[4],210 cells/µL
same,ABSOLUTE SEGMENTED NEUTROPHIL,[4],1560 cells/µL
same,BASOPHIL,[4],0.77%
same,EOSINOPHIL,[4],0.92%
same,ERYTHROCYTE COUNT,[4],8.21 x10E6/uL
same,HEMATOCRIT,[4],47.53%
same,HEMOGLOBIN,[4],15.65 G/DL
same,LEUKOCYTE COUNT,[4],11.91 x10E3/uL
same,LYMPHOCYTE,[4],83.34%
same,MEAN CORPUSCULAR HEMOGLOBIN,[4],19.07 pg
same,MEAN CORPUSCULAR HEMOGLOBIN CONCENTRATION,[4],32.93 G/DL
same,MEAN CORPUSCULAR VOLUME,[4],57.9 fL
same,MONOCYTE,[4],1.68%
same,NEUTROPHIL,[4],12.97%
same,PLATELET COUNT,[4],1323.8 x10E3/uL
same,ALANINE AMINOTRANSFERASE,[5],31.6 u/L
same,ALBUMIN,[5],3.66 G/DL
same,ALKALINE PHOSPHATASE,[5],228.6 u/L
same,ASPARTATE AMINOTRANSFERASE,[5],79.6 u/L
same,BLOOD UREA NITROGEN,[5],11.2 mg/dL
same,CHLORIDE,[5],107 MEQ/L
same,CHOLESTEROL,[5],57 mg/dL
same,CREATININE,[5],0.5 mg/dL
same,GLUCOSE,[5],124.4 mg/dL
same,LACTATE DEHYDROGENASE,[5],106.4 u/L
same,LIPASE,[5],24.4 u/L
same,PHOSPHORUS,[5],10.52 mg/dL
same,POTASSIUM,[5],6.34 MEQ/L
same,SODIUM,[5],149.2 MEQ/L
same,TOTAL BILIRUBIN,[5],0.2 mg/dL
same,TOTAL PROTEIN,[5],6.48 G/DL
same,URIC ACID,[5],0.94 mg/dL
same,ALANINE AMINOTRANSFERASE,[6],30 u/L
same,ALBUMIN,[6],3.71 G/DL
same,ALKALINE PHOSPHATASE,[6],186.8 u/L
same,ASPARTATE AMINOTRANSFERASE,[6],78.2 u/L
same,BLOOD UREA NITROGEN,[6],14.2 mg/dL
same,CHOLESTEROL,[6],44.9 mg/dL
same,CREATINE PHOSPHOKINASE,[6],334.3 u/L
same,CREATININE,[6],0.6 mg/dL
same,GLUCOSE,[6],147.2 mg/dL
same,LACTATE DEHYDROGENASE,[6],123.1 u/L
same,LIPASE,[6],9.6 u/L
same,PHOSPHORUS,[6],10.01 mg/dL
same,POTASSIUM,[6],6.57 MEQ/L
same,SODIUM,[6],149.5 MEQ/L
same,TOTAL BILIRUBIN,[6],0.21 mg/dL
same,TOTAL PROTEIN,[6],6.66 G/DL
same,URIC ACID,[6],1.26 mg/dL
same,ABSOLUTE BASOPHIL,"10 mg/kg, 120 h, dose level High, time 5 day",46 cells/µL

# Reference: ChEMBL document CHEMBL3885881, “DrugMatrix”
